Read-outs that look alike come from different tables or passages of the source.

The test system of data set [1] is ICR male mice. Description: Toxicity experiment, intraperitoneal administration. It is filed as in vivo. The note with it: 300 mg/kg intraperitoneally in 5% gum arabic, period of 7 days. As to the method:
Groups of ICR male mice, age 4 to 5 weeks, each group consisting of 10 mice were used for the test. A dose of 300 mg/kg of each compound prepared in Examples 1 and 2 hereinbelow suspended in 5% gum arabic was intraperitoneally administered to each group of mice.

Data set [2] has as its target T1, prolyl endopeptidase prepared from canine brains (Canis lupus familiaris, UniProt A0A8I3N6C8).
T1 construct: Prolyl endopeptidase was prepared from canine brains; from tissue; host or cells: canine brain
Kind of data set: Inhibitory activity against prolyl endopeptidase from brain. In kind it is biochemical. The following applies: substrate carbobenzoxyglycylprolyl paranitroanilide, 37° C., 10 minutes, read-out: Inhibition Potency, IC50. Here is the method:
Buffer A: 20 mM Tris-HCl buffer (pH 7.0)
Buffer B: a solution containing 0.1% gelatin, 1 mM EDTA, and 1 mM mercapto ethanol in buffer solution A
Prolyl endopeptidase was dissolved with the Buffer B at a concentration of 0.4 unit/ml. This solution (50 μl) was added to 940 μl of the Buffer A, and the solution thus obtained was left at 37° C. for 10 minutes (This solution is herein referred to as "Enzyme solution"). A mixed solution of 50 μl of the Buffer B and 940 μl of Buffer A was used as a "Correction solution".
A test compound was dissolved with dimathylsulfoxide (10 μl) was added to the Enzyme solution. The mixture was stirred and allowed to stand at 37° C. for 10 minutes. Separately, 10 μl of dimethylsulfoxide was added to the Enzyme solution and was processed in the same manner. The solution thus obtained was served as a "Control solution". The same procedure was carried out on the Correction solution.
One hundred micoliters of 2.5 mM carbobezoxyglycylprolyl paranitroanilide, which was dissolved with 40% dioxane, was added to each of the above 3 solutions, i.e., the Enzyme solution with the test compound, Control solution, and Correction solution, and the reaction was carried out at 37° C. for 10 minutes.
Enzyme activities were determined by subtracting the blank value, i.e., the absorbance measured on the Correction solution, from the absorbance of each of the sample solutions and of the Control solution.

Another data set relates to Fisher 344 male rats. Kind of data set: Toxicity experiment, oral administration. In kind it is in vivo. The following applies: period of 14 days; for Mortality: 500, 1,000, 1,500 and 2,000 mg/kg orally in propylene glycol. An excerpt: Groups of Fisher 344 male rats, age 6 weeks, each group consisting of 5 rats were used for the test.
The subject of data set [3] is ICR male mice. Kind of data set: Anti-hypoxic activity (survival time under 4% O2 + 96% N2). In kind it is in vivo. The note with it: 30 minutes before mixed gas, control = 100. As to the method:
Groups of ICR male mice, age 4 to 5 weeks, each group consisting of 10 mice and each mouse having been fasted for 24 hours, were used for the test. Mice were placed in a transparent desiccator (diameter: 19 cm, height: 30 cm) made of synthetic resin and having 2 bulbs, one at the upper portion and the other at the lower portion, for replacing the gas therein. A mixed gas (4% O2 +96% N2) was fed from the upper bulb at a rate of 10 l/min to measure the period of time until respiratory arrest took place for each mouse. The time measured was taken as the time of survival.
Each tested compound suspended in 5% gum arabic solution was intraperitoneally administered 30 minutes before the start of the mixed gas feeding. A group of mice to which only 5% gum arabic solution was intraperitoneally administered was used as a control.
Compounds, not sufficiently suspended in 5% gum arabic, were dissolved with Tween 80 so that the final concentration of the detergent was 3%, followed by the addition of 5% gum arabic. The anti-hypoxic activity was determined according to the following formula: [formula]

Data set [4] addresses prolyl endopeptidase from Flavobacterium (Elizabethkingia meningoseptica, UniProt P27028). Description: biochemical. As to the method: Inhibitory activity of the compound of formula (I) against prolyl endopeptidase from Flavobacterium was measured according to the method of Yoshimoto and Tsuru [Arg.
Prolyl endopeptidase was dissolved with 20 mM Tris-HCl buffer (pH 7.4) at a concentration of 0.4 unit/ml. This solution (100 μl) was added to 890 μl of the same buffer, and the solution thus obtained was left at room temperature for 10 minutes. (This solution is herein referred to as an "Enzyme solution"). This buffer (990 μl) was used as a "Correction solution".
Test compound dissolved with dimethylsulfoxide (10 μl) was added to the Enzyme solution. The solution was stirred and allowed to stand at room temperature for 10 minutes. Separately, 10 μl of dimethylsulfoxide was added to Enzyme solution and was processed in the same manner. The solution thus obtained was served as a "Control solution". The same procedure was carried out on the Correction solution.
Enzyme activities were determined by subtracting the blank value, i.e., the absorbance measured on the Correction solution, from the absorbance of each of the sample solutions or of the Control solution.

The subject of data set [5] is ICR male mice. Description: Anti-amnesic activity (cycloheximide-induced amnesia, step-down passive avoidance). It is filed as in vivo. The following applies: for Amnesic Mice (%): latency shorter than 150 seconds at 24 hours. Here is the method:
Compounds of this invention were checked with respect to their abilities to prevent the inhibition of long-term memory fixation by cycloheximide which is an amnesia inducing compound. ICR male mice, age 6 to 7 weeks, were used for the test. The test was carried out using a step-down passive avoidance apparatus.
On the first day, a 5-minute training was given to each mouse which was placed on a rubber platform. Every time when the mouse stepped down on the grid floor, a 0.2 mA electric foot shock was applied until it stepped up on the platform. This motion of the mouse was repeated for 5 minutes.
Administration of cycloheximide and the compound of this invention was performed immediately after the training. Cycloheximide was dissolved in a saline and subcutaneously administered to the mouse. The compound of this invention, suspended in a sesame oil/Tween 80/5% gum arabic (3/1/96; by volume), was intraperitoneally administered. Aniracetam suspended in 5% gum arabic was orally administered. Twenty-four hours after the training, a retention test was performed, which consisted of placing the mouse on the platform again and measuring the latency of the mouse to step down on the grid floor. The amnesia ratio for each group of mice was determined as the percentage of amnesic mice taken latency shorter than 150 seconds.
- wherein %A is a percentage of amnesic mice, t denotes a test compound,
stands for cycloheximide, v stands for vehicle, and s stands for saline

Where [6] appears, read: read-out: Inhibition Potency, IC50.
The mark [7] stands for this setting: 1 mg/kg ip + cycloheximide 200 mg/kg sc.
The mark [8] stands for this setting: 3 mg/kg ip + cycloheximide 200 mg/kg sc.
The mark [9] stands for this setting: 30 mg/kg po + cycloheximide 200 mg/kg sc.
The mark [10] stands for this setting: 60 mg/kg po + cycloheximide 200 mg/kg sc.

Chain of prolyl endopeptidase from Flavobacterium (P27028 21-705): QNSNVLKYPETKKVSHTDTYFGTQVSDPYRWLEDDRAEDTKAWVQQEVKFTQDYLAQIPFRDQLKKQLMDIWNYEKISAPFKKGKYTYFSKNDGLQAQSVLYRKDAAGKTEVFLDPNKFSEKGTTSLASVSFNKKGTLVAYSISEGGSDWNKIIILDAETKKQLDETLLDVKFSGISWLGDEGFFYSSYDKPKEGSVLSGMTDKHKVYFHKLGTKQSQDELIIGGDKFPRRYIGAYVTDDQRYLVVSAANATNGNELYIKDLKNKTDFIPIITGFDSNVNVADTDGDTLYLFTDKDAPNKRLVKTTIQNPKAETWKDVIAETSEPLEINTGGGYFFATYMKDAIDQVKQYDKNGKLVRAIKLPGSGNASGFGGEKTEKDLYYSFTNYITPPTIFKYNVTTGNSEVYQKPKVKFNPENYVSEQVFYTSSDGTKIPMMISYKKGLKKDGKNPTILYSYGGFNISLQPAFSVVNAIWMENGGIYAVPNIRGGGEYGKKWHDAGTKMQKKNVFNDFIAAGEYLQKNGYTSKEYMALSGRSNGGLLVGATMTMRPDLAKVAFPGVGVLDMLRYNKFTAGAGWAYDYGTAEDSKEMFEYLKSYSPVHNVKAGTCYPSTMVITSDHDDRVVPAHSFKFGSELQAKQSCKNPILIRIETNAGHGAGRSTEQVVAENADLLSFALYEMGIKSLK
T1 sequence (A0A8I3N6C8 1-710): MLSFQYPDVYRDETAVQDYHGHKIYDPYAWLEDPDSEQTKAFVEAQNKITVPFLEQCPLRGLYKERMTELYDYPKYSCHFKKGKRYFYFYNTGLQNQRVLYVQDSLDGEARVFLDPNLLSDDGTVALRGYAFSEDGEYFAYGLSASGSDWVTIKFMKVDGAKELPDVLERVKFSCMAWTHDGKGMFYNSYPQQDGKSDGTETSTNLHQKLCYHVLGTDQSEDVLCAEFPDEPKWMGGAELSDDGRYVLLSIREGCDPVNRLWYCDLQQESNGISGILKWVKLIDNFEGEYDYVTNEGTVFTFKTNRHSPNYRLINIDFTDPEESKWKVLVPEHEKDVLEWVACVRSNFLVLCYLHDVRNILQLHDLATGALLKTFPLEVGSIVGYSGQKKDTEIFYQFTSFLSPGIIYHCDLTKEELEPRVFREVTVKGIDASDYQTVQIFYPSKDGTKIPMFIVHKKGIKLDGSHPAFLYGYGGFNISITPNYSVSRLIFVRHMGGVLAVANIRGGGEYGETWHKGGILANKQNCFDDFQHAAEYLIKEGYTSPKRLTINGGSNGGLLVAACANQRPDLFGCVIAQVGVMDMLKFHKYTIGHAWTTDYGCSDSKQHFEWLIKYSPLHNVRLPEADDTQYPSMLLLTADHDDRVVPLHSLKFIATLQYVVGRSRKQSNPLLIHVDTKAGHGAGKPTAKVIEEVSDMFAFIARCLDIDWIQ

For orientation: IC50 means the concentration that gives 50% inhibition. With `O=C([C@@H]1CCCN1C(=O)CCCc1ccccc1)N1CCSC1` [Compound of Ex. 2, N-(4-phenylbutanoyl)-L-prolylthiazolidineimide], the Mortality entry in the data set with ICR male mice [1] and with Fisher 344 male rats was “No fatal problem” in each case. Besides, the results for the IC50 in data set [2] and in data set [4] (setting [6]) were 0.041 µM and 0.15 µM, respectively. Further, in the data set on ICR male mice [3] (dose 100 mg/kg ip), the “Anti-hypoxic Activity (%)” value is recorded as 160%.

`O=C([C@@H]1CSCN1C(=O)CCCc1ccccc1)N1CCSC1` [Compound of Ex. 1, N-(4-phenylbutanoyl)-L-thioprolylthiazolidineimide]: the Mortality entry in the data set with ICR male mice [1] and in the data set on Fisher 344 male rats was “No fatal problem” each time. The “Amnesia Reversal (%)” value with ICR male mice [5] (setting [7]) stood at 28.2%; in the data set with ICR male mice [5] (setting [8]), 74.8%. In addition, the “Amnesic Mice (%)” value in the data set on ICR male mice [5] (setting [7]) is reported as 52.9%; in the data set with ICR male mice [5] (setting [8]), 26.7%. In addition, the IC50 is 0.017 µM in data set [2] and 0.087 µM in data set [4] (setting [6]). Also, in the data set on ICR male mice [3] (dose 100 mg/kg ip), the “Anti-hypoxic Activity (%)” value stood at 124%.

With `CC(C)(CO)[C@@H](O)C(=O)NCCCC(=O)O` [Calcium hopantenate, reference compound], in the data set on ICR male mice [3] (dose 250 mg/kg ip), the “Anti-hypoxic Activity (%)” value is listed as 135%. For the same molecule, the IC50 in data set [4] (prolyl endopeptidase from Flavobacterium, substrate carbobenzoxyglycylprolyl paranitroanilide, 37° C., 10 minutes, read-out: Inhibition Potency, IC50) is over 1000 µM.

For the molecule `O=C([C@@H]1CCCN1C(=O)CCCc1ccccc1)N1CCCC1` [SUAM 1221, reference compound], the entries for the “Rats died out of the 5 rats” value with Fisher 344 male rats (1,500 mg/kg orally) and in the data set with Fisher 344 male rats (2,000 mg/kg orally) were “one” and 2, respectively.

With `COC1=C(OC)C(=O)C(CCCCCCCCCCO)=C(C)C1=O` [Idebenone, reference compound], the “Anti-hypoxic Activity (%)” value in the data set on ICR male mice [3] (dose 100 mg/kg ip) is on record as 140%.

Regarding `O=C([C@@H]1CSCN1C(=O)CCCc1ccccc1)N1CCCC1` [Compound of Ex. 3, N-(4-phenylbutanoyl)-L-thioprolylpyrrolidineimide], the IC50 in data set [2] was found to be 0.031 µM. Moreover, in the data set with Fisher 344 male rats, the Mortality result is on record as “No fatal problem”. The “Anti-hypoxic Activity (%)” value in the data set with ICR male mice [3] (dose 100 mg/kg ip) is 169%.

For `COc1ccc(C(=O)N2CCCC2=O)cc1` [Aniracetam, reference compound], the entries for the “Amnesia Reversal (%)” value with ICR male mice [5] (setting [9]) and with ICR male mice [5] (setting [10]) were 22.8% and 7.2%, respectively. Further, the “Amnesic Mice (%)” value in the data set with ICR male mice [5] (setting [9]) is 42.9%; in the data set on ICR male mice [5] (setting [10]) it was 50.0%. Further, the “Anti-hypoxic Activity (%)” value with ICR male mice [3] (dose 100 mg/kg ip) turned out to be 115%; with ICR male mice [3] (dose 300 mg/kg ip) it was 159%. For the same molecule, the IC50 in data set [4] is over 1000 µM.

Take `O=C([C@H]1CCCN1C(=O)CCCc1ccccc1)N1CCSC1` [Compound of Ex. 4, N-(4-phenylbutanoyl)-D-prolylthiazolidineimide]: in the data set on ICR male mice [3] (dose 100 mg/kg ip), the “Anti-hypoxic Activity (%)” value is 164%.
